Measured values as given in the NIST ThermoML archive (doi:10.1016/j.jct.2017.05.001).
Numbers after ± are expanded uncertainties.

Assay: wn = mass fraction of the nth substance listed
Conditions: Liquid; for mass density: Vibrating tube method

OCCN(CCO)CCO [triethanolamine] + O
mass density [kg/m3]
Conditions | w1 = 0.0992 | w1 = 0.2 | w1 = 0.2991 | w1 = 0.4
333.15 K, 130000 kPa | 1045.8 ± 0.8 | 1059 ± 0.8 | 1072.9 ± 0.8 | 1088.3 ± 0.9
333.15 K, 140000 kPa | 1049.1 ± 0.8 | 1062.4 ± 0.8 | 1076 ± 0.8 | 1091.4 ± 0.9
353.15 K, 100 kPa | 985.7 ± 0.7 | 999.5 ± 0.7 | 1013.6 ± 0.7 | 1029.7 ± 0.7
353.15 K, 500 kPa | 985.7 ± 0.7 | 999.6 ± 0.7 | 1013.7 ± 0.7 | 1029.8 ± 0.7
353.15 K, 1000 kPa | 985.9 ± 0.7 | 999.8 ± 0.7 | 1013.9 ± 0.7 | 1030 ± 0.7
353.15 K, 2000 kPa | 986.4 ± 0.7 | 1000.1 ± 0.7 | 1014.3 ± 0.7 | 1030.4 ± 0.7
353.15 K, 5000 kPa | 987.7 ± 0.7 | 1001.5 ± 0.7 | 1015.6 ± 0.7 | 1031.7 ± 0.7
353.15 K, 10000 kPa | 989.9 ± 0.7 | 1003.7 ± 0.7 | 1017.8 ± 0.7 | 1033.9 ± 0.7
353.15 K, 15000 kPa | 992.1 ± 0.7 | 1005.8 ± 0.7 | 1019.9 ± 0.7 | 1035.8 ± 0.7
353.15 K, 20000 kPa | 994.1 ± 0.7 | 1007.8 ± 0.7 | 1021.9 ± 0.7 | 1037.9 ± 0.7
353.15 K, 30000 kPa | 998.2 ± 0.7 | 1011.9 ± 0.7 | 1025.9 ± 0.7 | 1041.9 ± 0.7
353.15 K, 40000 kPa | 1002.4 ± 0.7 | 1015.9 ± 0.7 | 1029.9 ± 0.7 | 1045.8 ± 0.7
353.15 K, 50000 kPa | 1006.2 ± 0.7 | 1019.8 ± 0.7 | 1033.8 ± 0.7 | 1049.5 ± 0.7
353.15 K, 60000 kPa | 1010.2 ± 0.7 | 1023.7 ± 0.7 | – | –

viscosity [mPa·s], 353.15 K
Conditions | 100 kPa | 5000 kPa | 10000 kPa | 15000 kPa | 20000 kPa | 25000 kPa | 30000 kPa | 40000 kPa | 60000 kPa
Concentric cylinders viscometry, w1 = 0.1 | 0.469 ± 0.011 | – | – | – | – | – | – | – | –
Concentric cylinders viscometry, w1 = 0.2 | 0.569 ± 0.013 | – | – | – | – | – | – | – | –
Concentric cylinders viscometry, w1 = 0.3 | 0.81 ± 0.017 | – | – | – | – | – | – | – | –
Concentric cylinders viscometry, w1 = 0.4 | 1.125 ± 0.024 | – | – | – | – | – | – | – | –
Falling or rolling sphere viscometry, w1 = 0.0992 | 0.4585 ± 0.015 | 0.451 ± 0.015 | 0.4541 ± 0.015 | 0.4547 ± 0.015 | 0.4578 ± 0.015 | 0.4595 ± 0.015 | 0.4619 ± 0.015 | 0.466 ± 0.015 | 0.4738 ± 0.016
Falling or rolling sphere viscometry, w1 = 0.2 | 0.5805 ± 0.019 | 0.5825 ± 0.019 | 0.5878 ± 0.019 | 0.5898 ± 0.019 | 0.5937 ± 0.019 | 0.5975 ± 0.02 | 0.6006 ± 0.02 | 0.6068 ± 0.02 | 0.6185 ± 0.02
Falling or rolling sphere viscometry, w1 = 0.2991 | 0.8052 ± 0.026 | 0.7994 ± 0.026 | 0.8046 ± 0.026 | 0.811 ± 0.027 | 0.8144 ± 0.027 | 0.821 ± 0.027 | 0.8266 ± 0.027 | 0.8374 ± 0.028 | 0.8576 ± 0.028
Falling or rolling sphere viscometry, w1 = 0.4 | 1.124 ± 0.037 | 1.125 ± 0.037 | 1.136 ± 0.037 | 1.146 ± 0.038 | 1.154 ± 0.038 | 1.164 ± 0.038 | 1.173 ± 0.039 | 1.193 ± 0.039 | 1.229 ± 0.04
